Test results as given in patent US6392025B1, “Human NHE3 protein and non-human cells expressing same” (Tranzmembrane, LLC, priority 1995, dated 2002).
Entries after “also recorded” stand apart in the source; their conditions may differ. Where two headings read alike, the source gives them in different places.

What was measured:
human NHE3 [1] = molecular target: T1, human NHE3 (Homo sapiens, UniProt P48764); assay: Na+/H+ exchange activity by BCECF fluorescence (pHi) in HNHE3/PS120 cells; type: cell-based
T1 construct: expressed in transfected cells; host or cells: PS120 (Na+/H+ exchanger deficient derivative of Chinese hamster lung fibroblast line CCL39), plasmid pEH3 (pECE vector)
T1 sequence (P48764 26-834): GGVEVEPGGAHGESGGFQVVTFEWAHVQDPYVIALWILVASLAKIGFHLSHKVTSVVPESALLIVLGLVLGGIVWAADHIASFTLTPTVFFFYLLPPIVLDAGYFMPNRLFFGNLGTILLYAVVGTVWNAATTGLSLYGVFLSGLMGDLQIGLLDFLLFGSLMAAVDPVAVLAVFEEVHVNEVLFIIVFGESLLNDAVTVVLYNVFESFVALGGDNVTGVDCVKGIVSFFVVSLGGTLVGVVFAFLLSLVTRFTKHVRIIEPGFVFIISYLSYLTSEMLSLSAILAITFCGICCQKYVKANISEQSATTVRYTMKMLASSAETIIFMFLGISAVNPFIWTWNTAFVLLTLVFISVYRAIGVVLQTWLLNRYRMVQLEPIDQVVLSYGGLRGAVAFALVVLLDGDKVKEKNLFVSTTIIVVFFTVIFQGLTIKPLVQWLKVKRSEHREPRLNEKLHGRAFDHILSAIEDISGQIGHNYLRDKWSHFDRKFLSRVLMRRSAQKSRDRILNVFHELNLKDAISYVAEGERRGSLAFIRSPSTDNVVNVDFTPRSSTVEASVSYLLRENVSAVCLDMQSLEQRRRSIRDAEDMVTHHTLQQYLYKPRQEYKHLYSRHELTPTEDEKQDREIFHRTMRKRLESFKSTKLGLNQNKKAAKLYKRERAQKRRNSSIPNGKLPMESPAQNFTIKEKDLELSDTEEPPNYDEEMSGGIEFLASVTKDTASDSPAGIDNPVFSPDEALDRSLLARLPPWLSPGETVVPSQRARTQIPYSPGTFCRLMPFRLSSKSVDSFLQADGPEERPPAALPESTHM
Protocol: HNHE3/PS120 cells were grown to 70-80% confluency on glass coverslips, serum starved overnight to arrest growth, washed with Na^+ medium (containing in mM: 130 NaCl, 5 KCl, 2 CaCl2, 1 MgSO4, 1 NaPO4, 25 glucose, 20 HEPES, pH 7.4) and loaded with the acetoxymethyl ester of 2′,7′-bis(2-carboxyethyl)-5-(and-6)carboxyfluorescein (BCECF) as previously discussed (31). Cells were washed with TMA medium (containing in mM: 130 tetramethylammonium-C1, 5 KCl, 2 CaCl2 1 MgSO4, 1 TMA-P04, 25 glucose, 20 HEPES, pH 7.4), mounted in a cuvette, and perfused at 37° C. Cells were acidified by perfusing with 30 mM NH4Cl prepulse followed by removal of NH4Cl with TMA medium. The cuvette was then perfused with Na^+ medium. […] Na^+/H^+ exchange was determined by multiplying the initial rate of Na^+ dependent alkalinization by intracellular buffering capacity, as described.
HNHE3/PS120 cells loaded with BCECF were acidified by NH4Cl prepulse.
Serum starved HNHE3/PS120 cells were acidified by a NH4Cl prepulse and allowed to recover in 130 mM Na^+ medium until steady-state pHi was obtained.

Rabbit NHE3 = Rabbit NHE3 (Oryctolagus cuniculus, UniProt P26432); conditions: read-out: Inhibition constants (IC50); cited from earlier work
Rabbit NHE3, sequence (P26432 30-832): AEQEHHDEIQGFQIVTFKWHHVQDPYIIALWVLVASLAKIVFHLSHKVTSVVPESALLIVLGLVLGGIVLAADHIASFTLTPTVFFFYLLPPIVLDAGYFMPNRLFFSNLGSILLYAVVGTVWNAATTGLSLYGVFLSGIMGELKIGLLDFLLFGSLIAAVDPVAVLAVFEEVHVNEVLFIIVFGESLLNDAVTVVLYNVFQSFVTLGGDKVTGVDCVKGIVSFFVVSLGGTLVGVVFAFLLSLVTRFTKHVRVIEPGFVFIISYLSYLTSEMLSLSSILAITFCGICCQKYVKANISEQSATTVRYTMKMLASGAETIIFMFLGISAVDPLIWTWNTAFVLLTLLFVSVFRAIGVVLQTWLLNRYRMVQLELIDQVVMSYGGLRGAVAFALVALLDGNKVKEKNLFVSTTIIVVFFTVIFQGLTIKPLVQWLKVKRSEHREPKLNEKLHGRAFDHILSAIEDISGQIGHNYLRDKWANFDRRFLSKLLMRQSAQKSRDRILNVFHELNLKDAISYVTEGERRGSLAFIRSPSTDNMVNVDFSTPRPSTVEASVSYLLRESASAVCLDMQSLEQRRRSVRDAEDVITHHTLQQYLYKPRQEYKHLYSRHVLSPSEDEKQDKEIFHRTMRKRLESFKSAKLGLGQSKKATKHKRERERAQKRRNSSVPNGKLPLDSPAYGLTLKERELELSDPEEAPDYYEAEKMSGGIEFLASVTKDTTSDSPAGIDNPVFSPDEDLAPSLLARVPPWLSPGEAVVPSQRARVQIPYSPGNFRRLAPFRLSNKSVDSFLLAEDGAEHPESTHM

Rat NHE3 = Rat NHE3 (Rattus norvegicus, UniProt P26433); conditions: read-out: Inhibition constants (IC50); cited from earlier work
Rat NHE3, sequence (P26433 29-831): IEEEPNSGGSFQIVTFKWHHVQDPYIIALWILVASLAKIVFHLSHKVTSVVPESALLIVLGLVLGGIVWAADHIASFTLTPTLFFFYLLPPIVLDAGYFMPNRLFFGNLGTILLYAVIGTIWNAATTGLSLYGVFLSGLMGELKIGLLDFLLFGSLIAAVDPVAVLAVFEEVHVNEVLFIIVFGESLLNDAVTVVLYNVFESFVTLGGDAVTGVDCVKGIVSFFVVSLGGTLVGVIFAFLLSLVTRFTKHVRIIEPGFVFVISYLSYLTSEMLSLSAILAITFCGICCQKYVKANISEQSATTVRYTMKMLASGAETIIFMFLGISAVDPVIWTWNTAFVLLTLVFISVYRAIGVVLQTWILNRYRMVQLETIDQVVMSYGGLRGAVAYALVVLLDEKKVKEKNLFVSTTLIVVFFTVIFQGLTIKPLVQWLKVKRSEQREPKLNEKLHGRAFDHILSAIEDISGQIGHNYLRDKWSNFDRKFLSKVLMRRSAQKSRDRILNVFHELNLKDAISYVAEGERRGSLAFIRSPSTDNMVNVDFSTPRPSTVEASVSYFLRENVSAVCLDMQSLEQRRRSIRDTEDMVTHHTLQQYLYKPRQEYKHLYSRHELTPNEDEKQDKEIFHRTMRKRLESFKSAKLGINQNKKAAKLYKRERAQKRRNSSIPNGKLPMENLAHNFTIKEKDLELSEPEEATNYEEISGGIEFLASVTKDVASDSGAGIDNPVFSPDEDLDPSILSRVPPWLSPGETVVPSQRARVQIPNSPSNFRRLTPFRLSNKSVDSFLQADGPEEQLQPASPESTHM

human NHE3 [2] = molecular target: T1, human NHE3; assay: 22Na+ uptake in acid loaded HNHE3/PS120 cells; type: cell-based; conditions: 22Na+ 1 mM
Protocol: Stably transfected HNHE3/PS 120 cells were grown to near confluency in 24-well plates. The cells were serum-starved for 24 hours to arrest growth. ^22Na^+ uptake (1 mM) was measured during the linear phase of uptake in the presence of 1 mM ouabain and various concentrations of potential inhibitors amiloride or ethylisopropylamiloride (EIPA) following acidification with NH4Cl prepulse, as detailed previously (30).
Human brush border epithelial Na^+/H^+ exchange has been characterized as being much less sensitive to inhibition by amiloride and its 5-amino-substituted analogues than basolateral and nonepithelial membrane Na^+/H^+ exchangers (10,24,36). Therefore we determined the quantitative sensitivity of HNHE3/PS120 cells to inhibition by amiloride and EIPA by ^22Na^+ uptake studies. The concentration dependence for amiloride and EIPA inhibition of the initial rate of ^22Na^+ uptake (1 mM) into acid loaded HNHE3/PS120 cells was determined.
Three independent experiments were performed. […] FIG. 6 provides curves are from a representative experiment. Each point represents the mean percent of control ^22Na^+ uptake of duplicate experiments for each concentration of inhibitor. The curves are nonlinear least squares fits of the data assuming a single binding site for the inhibition (GraphPAD Software, Inc., San Diego, Calif.).

[3] = mean of three independent experiments, read-out: Inhibition constants (IC50) of 22Na+ uptake, mean
[4] = single representative experiment, nonlinear least squares fit, read-out: IC50 of the representative curves (FIG. 6)

| SMILES | ΔpHi at steady state after addition (human NHE3 [1]; FGF 10 ng/ml (n=4) or PMA 1.0 μM (n=5), 130 mM Na+ medium, controls −0.006±0.012) | time to reach new steady state pHi (average) (human NHE3 [1]; FGF 10 ng/ml or PMA 1.0 μM added at steady-state pHi) | effect on human NHE3 Na+/H+ exchange activity (in words) (human NHE3 [1]; FGF 10 ng/ml, 8-bromo-cAMP 0.5 mM, PMA 1.0 μM, at steady-state pHi) | IC50 (Rabbit NHE3) [µM] | IC50 (Rat NHE3) [µM] | IC50 (human NHE3 [2]; [3]) [µM] | IC50 (human NHE3 [2]; [4]) [µM] |
| --- | --- | --- | --- | --- | --- | --- | --- |
| CCCCCCCCCCCCCC(=O)O[C@@H]1[C@@H](C)[C@@]2(O)[C@@H](C=C(CO)C[C@]3(O)C(=O)C(C)=C[C@@H]23)[C@@H]2C(C)(C)[C@]12OC(C)=O [PMA, phorbol 12-myristate 13-acetate] | −0.052±0.006 | less than 2 min | inhibition of the transfected Na^+/H^+ exchanger; also recorded: inhibited | – | – | – | – |
| CCN(c1nc(N)c(C(=O)NC(=N)N)nc1Cl)C(C)C [Ethylisopropylamiloride, ethylisopropylamiloride] | – | – | – | 8 | 2.4 | 6.6 | 8.8 |
| N=C(N)NC(=O)c1nc(Cl)c(N)nc1N [Amiloride, amiloride] | – | – | – | 39 | 100 | 49 | 59 |
